Structures can show the parent of a compound that is named as a salt. Where two headings read alike, the source gives them in different places.
Tests used:
[1] = Confirmatory laboratory extraction of a synthetic inhibitor/sugar mixture; assay type: physicochemical; details: 5 mL synthetic solution + 5 mL solvent, 20° C., HPLC
From the text: In order to define a standardized method of comparing solvents, a new parameter called extraction yield was created. Extraction yield is a ratio of the concentration of a species in the extract to the concentration of that species in the feed. […].
Another parameter, the extraction score, was defined in order to rank overall inhibitor removal performance. Each extraction yield of inhibitors and sugars was multiplied by a weighting factor determined by the importance of removing or retaining the particular compound in the feed. The resulting numbers were then summed to calculate the extraction score.
The confirmatory extraction of a synthetic inhibitor/sugar mixture was next carried out using inhibitors and sugars to mimic the conditions in acid-pretreated cellulosic fermentation feed. The synthetic solutions contained 1 g/L each of formic acid, lactic acid, acetic acid, furfural, HMF and vanillin as well as 20 g/L of glucose and 60 g/L of xylose. Five mL of this synthetic solution and 5 mL of solvent were added to a test tube and the test tubes were shaken in a Lab Line Instruments (Mumbai, India) “MULTI-WRIST SHAKER” at a setting of 8 for 10 min at 20° C. The mixture was allowed to settle overnight to phase separate completely. Inhibitor concentrations in each phase were analyzed by an Agilent Technologies (Santa Clara, Calif.) 1100 HPLC system consisting of a quaternary gradient pump, autosampler, heated column compartment, and diode array absorbance detector. Gradient elution was done on a YMC Company Ltd. (Kyoto, Japan) “YMC Carotenoid S-5” (C30) column with 0.05% phosphoric acid and a solvent ramp of 0% acetonitrile/100% water to 90% acetonitrile/10% water and back over 32.5 minutes. Based on the measured concentration of each inhibitor and sugar, extraction yields and scores were calculated and shown in Table 1 and reported as “laboratory extraction yield” and “laboratory extraction score”; (see footnotes 2 and 3).

[2] = system: E. Coli, FBR-5 strain; assay: Fermentation of extracted C5 fraction, sugar and ethanol by HPLC; assay type: cell-based, Escherichia coli
[3] = cited from earlier work
[4] = CE2 liquid/liquid solvent extraction (not membrane), 0 hrs
[5] = CE2 liquid/liquid solvent extraction (not membrane), 24 hrs
[6] = EX4 multilayer cross-flow MSE, 0 hrs
[7] = EX4 multilayer cross-flow MSE, 24 hrs
[8] = EX4 multilayer cross-flow MSE, 48 hrs
[9] = IUPAC-NIST Solubility Data Series / Yaws' Handbook

Structure (SMILES) | laboratory extraction yield, Acetic acid [1] | laboratory extraction yield, Formic acid [1] | laboratory extraction yield, Furfural [1] | laboratory extraction yield, HMF [1] | laboratory extraction yield, Lactic acid [1] | laboratory extraction yield, Vanillin [1] | Water Solubility ([3]; literature values) | other results
CCCCCCCCCCO [1-decanol] | 0.281^3 | 0.180^3 | 0.666^3 | 0.280^3 | 0.120^3 | 0.911^3 | 0.10 g/100 mL | Ethanol [2, 4]: 0 g/L; Sugar [2, 4]: 48 g/L; Ethanol [2, 5]: 23 g/L; Sugar [2, 5]: 1 g/L; Ethanol ([2]; EX3 single layer MSE, 0 hrs): 0 g/L; Sugar ([2]; EX3 single layer MSE, 0 hrs): 48 g/L; Ethanol ([2]; EX3 single layer MSE, 24 hrs): 20 g/L; Sugar ([2]; EX3 single layer MSE, 24 hrs): 3 g/L; Ethanol [2, 6]: 0 g/L; Sugar [2, 6]: 50 g/L; Ethanol [2, 7]: 12 g/L; Sugar [2, 7]: 30 g/L; Ethanol [2, 8]: 18 g/L; Sugar [2, 8]: 12 g/L
CCCCCCCCCCCCO [1-dodecanol] | 0.000^3 | 0.020^3 | 0.593^3 | 0.200^3 | 0.050^3 | 0.903^3 |  | 
CCCCCCCCO [1-octanol] | 0.361^3 | 0.239^3 | 0.728^3 | 0.360^3 | 0.180^3 | 0.931^3 | 0.11 g/100 mL | 
CC(C)CC(O)CC(C)C [2,6-dimethyl-4-heptanol] | 0.301^3 | 0.180^3 | 0.593^3 | 0.220^3 | 0.070^3 | 0.851^3 | 0.045 g/100 mL | 
CCCCC(CC)CO (stereo not drawn) [2-ethyl-1-hexanol] | 0.352^3 | 0.213^3 | 0.669^3 | 0.337^3 | 0.112^3 | 0.918^3 |  | 
CCCCC(C)O (stereo not drawn) [2-hexanol] |  |  |  |  |  |  | 0.35 g/100 mL | 
CCCCCCCC(C)=O [2-nonanone] |  |  |  |  |  |  | 0.050 g/100 mL | 
CCCCCCC(C)O (stereo not drawn) [2-octanol] | 0.397^3 | 0.280^3 | 0.687^3 | 0.394^3 | 0.155^3 | 0.937^3 | 0.11 g/100 mL | 
CCCCCCC(=O)CC [3-nonanone] | 0.321^3 | 0.130^3 | 0.895^3 | 0.310^3 | 0.030^3 | 0.931^3 | 0.010 g/100 mL | 
CC(=O)c1ccccc1 [Acetophenone] | 0.351^3 | 0.234^3 | 0.917^3 | 0.647^3 | 0.137^3 | 0.700^3 | 0.10 g/100 mL | 
CCCCNCCCC [Dibutylamine] |  |  |  |  |  |  | 0.35 g/100 mL | 
CCCCCCCC/C=C\CCCCCCCCO [Oleyl alcohol] |  |  |  |  |  |  | 0.018 g/100 mL | 
CCCCCCCCN(CCCCCCCC)CCCCCCCC [Trioctylamine] |  |  |  |  |  |  | 0.10 g/100 mL | 
O=Cc1ccccc1 [benzaldehyde] | 0.301^3 | 0.200^3 | 1.114^3 | 0.841^3 | 0.070^3 | 1.392^3 | 0.01 g/100 mL | 
C1CCCCC1 [cyclohexane] |  |  |  |  |  |  | 0.0017 g/100 mL | 
C1CCC2CCCCC2C1 (stereo not drawn) [decahydronapthalene] |  |  |  |  |  |  | 0.002 g/100 mL | 
CCCCOC(=O)/C=C\C(=O)OCCCC [dibutyl maleate] |  |  |  |  |  |  |  | Ethanol [2, 4]: 0 g/L; Sugar [2, 4]: 45 g/L; Ethanol [2, 5]: 20 g/L; Sugar [2, 5]: 1 g/L; Ethanol ([2]; EX3 single layer MSE, 0 hrs): 0 g/L; Sugar ([2]; EX3 single layer MSE, 0 hrs): 51 g/L; Ethanol ([2]; EX3 single layer MSE, 24 hrs): 19 g/L; Sugar ([2]; EX3 single layer MSE, 24 hrs): 2 g/L
CCOCC [diethyl ether, reference compound] |  |  |  |  |  |  |  | Water Solubility [3, 9]: 6.9 grams per 100 mL
CCOC(C)=O [ethyl acetate, reference compound] |  |  |  |  |  |  |  | Water Solubility [3, 9]: 8.3 grams per 100 mL
CCCC(=O)OCC [ethyl butyrate] | 0.221^3 | 0.160^3 | 0.937^3 | 0.360^3 | 0.050^3 | 1.001^3 | 0.50 g/100 mL | 
CC(C)OC(C)C [isopropyl ether] |  |  |  |  |  |  | 0.20 g/100 mL | 
CCCCCCCCCC [n-decane] |  |  |  |  |  |  | 0.10 g/100 mL | 
CCCCCCCCCCCC [n-dodecane] |  |  |  |  |  |  | 0.10 g/100 mL | 
CCCCCC [n-hexane] |  |  |  |  |  |  | 0.10 g/100 mL | 
CCCCCCCCCCCCCC [n-tetradecane] |  |  |  |  |  |  | 0.10 g/100 mL | 
CCCN(CCC)CCC [tripropylamine] |  |  |  |  |  |  | 0.10 g/100 mL | 
